Source: patent US8658639B2, “N-substituted-cyclic amino derivative” (Dainippon Sumitomo Pharma Co., Ltd, priority 2009, dated 2014)

These compounds were tested against T1, Recombinant human renin (Homo sapiens, UniProt P00797) (assay: In vitro renin inhibitory activity assay). Details: recombinant human renin 4.2 ng/mL, substrate 4 μM, 37° C., one hour, pH 7.4.
T1 sequence (P00797 67-406): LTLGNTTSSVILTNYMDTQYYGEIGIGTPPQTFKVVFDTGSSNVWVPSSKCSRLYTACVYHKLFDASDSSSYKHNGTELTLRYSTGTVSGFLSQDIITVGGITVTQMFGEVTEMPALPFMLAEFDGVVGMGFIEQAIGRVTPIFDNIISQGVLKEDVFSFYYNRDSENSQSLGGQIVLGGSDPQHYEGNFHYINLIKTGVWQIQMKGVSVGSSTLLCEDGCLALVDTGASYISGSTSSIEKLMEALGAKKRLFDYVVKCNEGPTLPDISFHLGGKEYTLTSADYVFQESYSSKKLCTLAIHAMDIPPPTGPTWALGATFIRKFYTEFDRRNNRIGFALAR
Format: biochemical
Protocol: Experiment 1: In Vitro Renin Inhibitory Activity Assay
Recombinant human renin (4.2 ng/mL) was reacted in 0.1M HEPES buffer (pH 7.4) containing 0.1M NaCl, 1 mM EDTA and 0.1 mg/mL BSA together with a substrate and a test compound at 37° C. for one hour. As the substrate, Arg-Glu(EDANS)-Ile-His-Pro-Phe-His-Leu-Val-Ile-His-Thr-Lys(DABCYL)-Arg (SEQ ID NO: 1) or DABCYL-γ-Abu-Ile-His-Pro-Phe-His-Leu-Val-Ile-His-Thr-EDANS (SEQ ID NO: 2) was added in such an amount so that the final concentration thereof became 4 μM. The elevated fluorescence intensity at the exciting wavelength 340 nm and the fluorescence wavelength 500 nm was measured by a fluorescence plate reader. The concentration of a test compound to be needed to inhibit an enzyme activity in the presence of a test compound in several concentrations by 50% was calculated as an IC50 value. The test compounds were diluted in DMSO and used in this Experiment.

Compound	IC50
CCC(=O)NCCN1C(=O)C(C)(C)Oc2cc(C)c(C(=O)N(C(C)C)C3CCCN(C(=O)OC(C)OC(=O)CC)C3)cc21 (stereo not drawn) [Example 18]	3.6 nM
CCC(=O)NCCN1C(=O)C(C)(C)Oc2cc(C)c(C(=O)N(C(C)C)[C@@H]3CCCN(C(=O)OCOC(=O)C(C)C)C3)cc21 [Example 4]	42 nM
CCC(=O)NCCN1C(=O)C2(CCC2)Oc2cc(C)c(C(=O)N(C(C)C)C3CCCN(C(=O)OC(C)OC(=O)C(C)C)C3)cc21 (stereo not drawn) [Example 47]	76 nM
CCOC(=O)OC(C)OC(=O)N1CCCC(N(C(=O)c2cc3c(cc2C)OC2(CCC2)C(=O)N3CCNC(=O)CC)C(C)C)C1 (stereo not drawn) [Example 34]	140 nM
CCC(=O)NCCN1C(=O)C(C)(C)Oc2cc(C)c(C(=O)N(C(C)C)[C@@H]3CCCN(C(=O)OCOC(=O)OC4CCOCC4)C3)cc21 [Example 13]	5.1 nM
CCC(=O)NCCN1C(=O)C2(CC2)Oc2cc(C)c(C(=O)N(C(C)C)C3CCCN(C(=O)OC(C)OC(=O)C(C)C)C3)cc21 (stereo not drawn) [Example 42]	15 nM
CCC(=O)NCCN1C(=O)C2(CCC2)Oc2cc(C)c(C(=O)N(C(C)C)C3CCCN(C(=O)OC(OC(=O)C(C)C)C(C)C)C3)cc21 (stereo not drawn) [Example 45]	52 nM
CCC(=O)NCCN1C(=O)C(C)(C)Oc2cc(C(F)(F)F)c(C(=O)N(C(C)C)[C@@H]3CCCN(Cc4oc(=O)oc4C)C3)cc21 [Example 31, N-Isopropyl-2,2-dimethyl-N-{(3R)-1-[(5-methyl-2-oxo-1,3-dioxol-4-yl)methyl]piperidin-3-yl}-3-oxo-4-[2-(propionylamino)ethyl]-7-(trifluoromethyl)-3,4-dihydro-2H-1,4-benzoxazine-6-carboxamide]	0.38 nM
CCC(=O)NCCN1C(=O)C(C)(C)Oc2cc(C)c(C(=O)N(C(C)C)[C@@H]3CCCN(C(=O)OCOC(=O)OC4CCC4)C3)cc21 [Example 12]	160 nM
CCC(=O)NCCN1C(=O)C(C)(C)Oc2cc(C)c(C(=O)N(C(C)C)[C@@H]3CCCN(C(=O)O[C@H](C)OC(=O)CC)C3)cc21 [Example 53]	48 nM
CCC(=O)NCCN1C(=O)C(C)(C)Oc2cc(C)c(C(=O)N(C(C)C)[C@@H]3CCCN(C(=O)OCOC(=O)OC)C3)cc21 [Example 9]	140 nM
CCC(=O)NCCN1C(=O)C2(CC2)Oc2cc(C)c(C(=O)N(C(C)C)C3CCCN(C(=O)OC(C)OC(=O)C4CCOCC4)C3)cc21 (stereo not drawn) [Example 43]	69 nM
CCC(=O)NCCN1C(=O)C2(CCC2)Oc2cc(C)c(C(=O)N(C(C)C)C3CCCN(C(=O)OC(C)OC(=O)COC)C3)cc21 (stereo not drawn) [Example 49]	14 nM
CCC(=O)NCCN1C(=O)C(C)(C)Oc2cc(C)c(C(=O)N(C(C)C)C3CCCN(C(=O)OC(OC(C)=O)C(C)C)C3)cc21 (stereo not drawn) [Example 19]	11 nM
CCC(=O)NCCN1C(=O)C(C)(C)Oc2cc(C)c(C(=O)N(C(C)C)C3CCCN(C(=O)OC(C)OC(=O)OC4CCCCC4)C3)cc21 (stereo not drawn) [Example 54]	13 nM
CCC(=O)NCCN1C(=O)C2(CCC2)Oc2cc(C)c(C(=O)N(C(C)C)C3CCCN(C(=O)OC(OC(=O)CC)C(C)C)C3)cc21 (stereo not drawn) [Example 46]	74 nM
CCC(=O)NCCN1C(=O)C2(CCC2)Oc2cc(C)c(C(=O)N(C(C)C)C3CCCN(C(=O)OC(C)OC(=O)C4CCOCC4)C3)cc21 (stereo not drawn) [Example 48]	340 nM
CCC(=O)NCCN1C(=O)C(C)(C)Oc2cc(C)c(C(=O)N(C(C)C)C3CCCN(C(=O)OC(OC(=O)CC)C(C)C)C3)cc21 (stereo not drawn) [Example 20]	91 nM
CCC(=O)NCCN1C(=O)C(C)(C)Oc2cc(C)c(C(=O)N(C(C)C)[C@@H]3CCCN(C(=O)O[C@@H](C)OC(=O)CC)C3)cc21 [Example 52]	42 nM
CCC(=O)NCCN1C(=O)C2(CC2)Oc2cc(C)c(C(=O)N(C(C)C)C3CCCN(C(=O)OC(C)OC(=O)CC)C3)cc21 (stereo not drawn) [Example 41]	68 nM
Cc1cc2c(cc1C(=O)N(C(C)C)[C@@H]1CCCN(C(=O)OCc3oc(=O)oc3C)C1)N(CCNC(=O)C(F)F)C(=O)C1(CC1)O2 [Example 39]	3.6 nM
CCC(=O)NCCN1C(=O)C(C)(C)Oc2cc(C)c(C(=O)N(C(C)C)C3CCCN(C(=O)OC(C)OC(=O)c4cccnc4)C3)cc21 (stereo not drawn) [Example 59]	38 nM
CCC(=O)NCCN1C(=O)C(C)(C)Oc2cc(C)c(C(=O)N(C(C)C)[C@@H]3CCCN(C(=O)OCc4oc(=O)oc4-c4ccccc4)C3)cc21 [Example 7]	1.3 nM
CCC(=O)NCCN1C(=O)C2(CCC2)Oc2cc(C)c(C(=O)N(C(C)C)C3CCCN(C(=O)OC(C)OC(=O)CC(C)(C)O)C3)cc21 (stereo not drawn) [Example 50]	15 nM
CCC(=O)NCCN1C(=O)C(C)(C)Oc2cc(C)c(C(=O)N(C(C)C)C3CCCN(C(=O)OC(C)OC(=O)OC(C)C)C3)cc21 (stereo not drawn) [Example 8]	410 nM
CCC(=O)NCCN1C(=O)C2(CCC2)Oc2cc(C)c(C(=O)N(C(C)C)C3CCCN(C(=O)OC(OC(C)=O)C(C)C)C3)cc21 (stereo not drawn) [Example 35]	2.7 nM
Cc1cc2c(cc1C(=O)N(C(C)C)[C@@H]1CCCN(C(=O)OCc3oc(=O)oc3C)C1)N(CCNC(=O)C(F)F)C(=O)C1(CCC1)O2 [Example 44]	1.9 nM

The next lines start with the values.

IC50	Compound
9.6 nM	CCC(=O)NCCN1C(=O)C(C)(C)Oc2cc(C)c(C(=O)N(C(C)C)C3CCCN(C(=O)OC(C)OC(=O)C4CCOCC4)C3)cc21 (single isomer, unassigned) [Example 88]
14 nM	CCC(=O)NCCN1C(=O)C(C)(COC)Oc2cc(C)c(C(=O)N(C(C)C)C3CCCN(C(=O)OC(C)OC(=O)CC)C3)cc21 (stereo not drawn) [Example 86]
3.2 nM	CCC(=O)NCCN1C(=O)C(C)(C)Oc2cc(C)c(C(=O)N(C(C)C)C3CCCN(C(=O)OC(C)OC(=O)C4CCOCC4)C3)cc21 (stereo not drawn) [Example 60]
2.5 nM	Cc1oc(=O)oc1COC(=O)N1CCC[C@@H](N(C(=O)c2cc3c(cc2C(F)(F)F)OC2(CC2)C(=O)N3CCNC(=O)C(F)F)C(C)C)C1 [Example 71]
1230 nM	CCC(=O)NCCN1C(=O)C(C)(C)Oc2cc(C)c(C(=O)N(C(C)C)[C@@H]3CCCN(C(=O)O[C@@H](C)OC(=O)C(C)C)C3)cc21 [Example 66]
730 nM	CCOC(=O)O[C@@H](C)OC(=O)N1CCC[C@@H](N(C(=O)c2cc3c(cc2C)OC(C)(C)C(=O)N3CCNC(=O)CC)C(C)C)C1 [Example 90]
505 nM	CCC(=O)NCCN1C(=O)C2(CCC2)Oc2cc(C)c(C(=O)N(C(C)C)[C@@H]3CCCN(C(=O)O[C@@H](C)OC(=O)C(C)C)C3)cc21 [Example 83]
710 nM	CCOC(=O)O[C@H](C)OC(=O)N1CCC[C@@H](N(C(=O)c2cc3c(cc2C)OC(C)(C)C(=O)N3CCNC(=O)CC)C(C)C)C1 [Example 91]
2.8 nM	CCC(=O)NCCN1C(=O)C(C)(C)Oc2cc(C)c(C(=O)N(C(C)C)C3CCCN(C(=O)OC(C)OC(=O)C(N)C(C)C)C3)cc21 (stereo not drawn) [Example 62]
1890 nM	CCC(=O)NCCN1C(=O)[C@](C)(COC)Oc2cc(C)c(C(=O)N(C(C)C)[C@@H]3CCCN(C(=O)O[C@@H](C)OC(=O)C(C)C)C3)cc21 [Example 94]
0.96 nM	CCC(=O)NCCN1C(=O)C(C)(C)Oc2cc(C)c(C(=O)N(C(C)C)[C@@H]3CCCN(C(=O)OC(C)OC(=O)CCCO)C3)cc21 (stereo partly drawn) [Example 63, 1-[(4-Hydroxybutanoyl)oxy]ethyl (3R)-3-[isopropyl({2,2,7-trimethyl-3-oxo-4-[2-(propionylamino)ethyl]-3,4-dihydro-2H-1,4-benzoxazin-6-yl}carbonyl)amino]piperidine-1-carboxylate]
22 nM	CCC(=O)NCCN1C(=O)C(C)(COC)Oc2cc(C(F)(F)F)c(C(=O)N(C(C)C)C3CCCN(C(=O)OC(C)OC(=O)C(C)C)C3)cc21 (stereo not drawn) [Example 74]
